From patent publication US20110046223A1, “TREATMENT OF NEUROFIBROMATOSIS” (RAMOT AT TEL-AVIV UNIVERSITY LTD., priority 2006, published 2011)

System: phospho-Akt
Assay: serum-stimulated phospho-Akt, kinetic study
Format: cell-based, human
Experimental: Unless otherwise indicated, cells were lysed 48 hours after being treated with lysis buffer, as described in Haklai, et al., supra. […] Protein bands were visualized by ECL and quantified by densitometry with Image Master VDS-CL (Amersham) using TINA 2.0 software (Ray Tests). To obtain reliable comparisons between replicated experiments for statistical analysis, a standardization procedure was used, in which the density of each given protein band as recorded with its specific Ab, was normalized. […] The standard average density was defined as 1.0, and each of the individually determined bands was related to this value. […] Actin cytoskeletal elements were labeled with rhodamine-phalloidin, and digital fluorescence images were collected on a Zeiss LSM 510 confocal microscope fitted with fluorescein and rhodamine filters, as described in Gana-Weisz, M., et al., supra.
First, the time courses of serum-stimulated GTP loading of Ras and serum-stimulated activation of signals downstream of Ras were determined. […]

Q: How did the “serum-stimulated increase in phospho-Akt” value (STS26T cells, serum-starved 24 hours, stimulated with 10% serum) turn out when `CC(C)=CCC/C(C)=C/CC/C(C)=C/CSc1ccccc1C(=O)O` [FTS, S-farnesylthiosalicylic acid] was run?
A: inhibited

Q: What about the “serum-stimulated increase in phospho-Akt” value (all NF-1 cell lines (T265P21, ST88-14, 90-8)) of the same compound?
A: reduced
